Results from US20250145641A1, “FUSED BICYCLIC DERIVATIVE, PHARMACEUTICALLY ACCEPTABLE SALT, CRYSTAL FORM THEREOF AND PREPARATION METHOD THEREFOR” (JIANGSU HENGRUI PHARMACEUTICALS CO., LTD., priority 2021, published 2025).
Each block holds one compound with its values, some of them ahead of it.

Legend:
Format in all cases: physicochemical
[1] = Hygroscopicity study (dynamic vapor sorption); settings: DVS, 25° C.; for Crystal form after hygroscopicity test: two cycles
Protocol: DVS is dynamic vapor sorption: The detection was carried out using SMS DVS Advantage at 25° C. with a humidity change of 50%-95%-0%-95%-50% in steps of 10% (the last step was 5%) (the specific range of humidity was subject to the corresponding pattern, and most methods were listed here), and the judgment standard was that dm/dt was not greater than 0.002%.
Using Surface Measurement Systems advantage 2, starting at a humidity of 50% at 25° C., the humidity range was 0%-95%, the step was 10%, the judgment standard was that the mass change dM/dT of each gradient was less than 0.002%, the running time TMAX of each humidity gradient was 360 min, with two cycles, and the specific results are shown in Table 8.

[2] = Stability of crystal form, influencing factor experiment; settings: for physical and chemical stability (conclusion): illumination, 40° C. and 60° C., humidity 75% and 92.5%
Protocol: The crystal form A of hydrochloride, the crystal form A of methanesulfonate, and the crystal form α of the acetate were placed flat and left open. The stability of the samples was investigated under conditions of illumination (4500 Lux), high temperature (40° C., 60° C.), and high humidity (RH 75%, RH 92.5%), and the sampling investigation period was 30 days.

[3] = Long-term/accelerated stability study; settings: for physical and chemical stability (conclusion): 25° C./60 RH and 40° C./75 RH, 6 months
Protocol: The crystal form A of hydrochloride, the crystal form A of methanesulfonate, and the crystal form α of acetate were placed at 25° C./60% RH and 40° C./75% RH to investigate the stability, and the results are shown in Tables 10, 11, and 12 below.

- mass change 0% RH-80.0% RH [1]: 0.60%
- mass change 0.0% RH-95.0% RH [1]: 0.79%
- Crystal form after hygroscopicity test [1]: Untransformed
- Crystal form ([2]; 40° C., 5 days, open): Untransformed
- Purity % ([2]; 40° C., 5 days, open): 99.3%
- Crystal form ([2]; 40° C., 10 days, open): Untransformed
- Purity % ([2]; 40° C., 10 days, open): 99.3%
- Crystal form ([2]; 40° C., 30 days, open): Untransformed
- Purity % ([2]; 40° C., 30 days, open): 99.3%
- Crystal form ([2]; 60° C., 5 days, open): Untransformed
- Purity % ([2]; 60° C., 5 days, open): 99.3%
- Crystal form ([2]; 60° C., 10 days, open): Untransformed
- Purity % ([2]; 60° C., 10 days, open): 99.3%
- Crystal form ([2]; 60° C., 30 days, open): Untransformed
- Purity % ([2]; 60° C., 30 days, open): 99.2%
- Crystal form ([2]; 75% RH, 5 days, open): Untransformed
- Purity % ([2]; 75% RH, 5 days, open): 99.3%
- Crystal form ([2]; 75% RH, 10 days, open): Untransformed
- Purity % ([2]; 75% RH, 10 days, open): 99.3%
- Crystal form ([2]; 75% RH, 30 days, open): Untransformed
- Purity % ([2]; 75% RH, 30 days, open): 99.4%
- Crystal form ([2]; 92.5% RH, 5 days, open): Untransformed
- Purity % ([2]; 92.5% RH, 5 days, open): 99.3%
- Crystal form ([2]; 92.5% RH, 10 days, open): Untransformed
- Purity % ([2]; 92.5% RH, 10 days, open): 99.3%
- Crystal form ([2]; 92.5% RH, 30 days, open): Untransformed
- Purity % ([2]; 92.5% RH, 30 days, open): 99.3%
- Crystal form ([2]; 4500 Lux, 5 days, open): Untransformed
- Purity % ([2]; 4500 Lux, 5 days, open): 99.3%
- Crystal form ([2]; 4500 Lux, 10 days, open): Untransformed
- Purity % ([2]; 4500 Lux, 10 days, open): 99.3%
- Crystal form ([2]; 4500 Lux, 30 days, open): Untransformed
- Purity % ([2]; 4500 Lux, 30 days, open): 99.3%
- Purity % ([2]; Onset, 0 days): 99.3%
- physical and chemical stability (conclusion) ([2]; 30 days): good physical and chemical stability
- Crystal form ([3]; 25° C./60% RH): Untransformed
- Purity % 1 month ([3]; 25° C./60% RH): 99.3%
- Purity % 2 month ([3]; 25° C./60% RH): 99.3%
- Purity % 3 month ([3]; 25° C./60% RH): 99.2%
- Purity % 6 month ([3]; 25° C./60% RH): 99.3%
- Purity % Onset ([3]; 25° C./60% RH): 99.3%
- physical and chemical stability (conclusion) [3]: good physical and chemical stability
- Crystal form ([3]; 40° C./75% RH): Untransformed
- Purity % 1 month ([3]; 40° C./75% RH): 99.3%
- Purity % 2 month ([3]; 40° C./75% RH): 99.3%
- Purity % 3 month ([3]; 40° C./75% RH): 99.2%
- Purity % 6 month ([3]; 40° C./75% RH): 99.3%
- Purity % Onset ([3]; 40° C./75% RH): 99.3%
SMILES: CC(C)NCC(C(=O)N1C2CCC1CN(c1ncnc3c1C(C)(C)C(=O)N3)C2)c1ccc(Cl)cc1.Cl (stereo not drawn) [Crystal form A of hydrochloride]

- mass change 0% RH-80.0% RH [1]: 0.31%
- mass change 0.0% RH-95.0% RH [1]: 0.43%
- Crystal form after hygroscopicity test [1]: Untransformed
- Crystal form ([2]; 40° C., 5 days, open): Untransformed
- Purity % ([2]; 40° C., 5 days, open): 99.9%
- Crystal form ([2]; 40° C., 10 days, open): Untransformed
- Purity % ([2]; 40° C., 10 days, open): 99.9%
- Crystal form ([2]; 40° C., 30 days, open): Untransformed
- Purity % ([2]; 40° C., 30 days, open): 99.9%
- Crystal form ([2]; 60° C., 5 days, open): Untransformed
- Purity % ([2]; 60° C., 5 days, open): 99.9%
- Crystal form ([2]; 60° C., 10 days, open): Untransformed
- Purity % ([2]; 60° C., 10 days, open): 99.9%
- Crystal form ([2]; 60° C., 30 days, open): Untransformed
- Purity % ([2]; 60° C., 30 days, open): 99.9%
- Crystal form ([2]; 75% RH, 5 days, open): Untransformed
- Purity % ([2]; 75% RH, 5 days, open): 99.9%
- Crystal form ([2]; 75% RH, 10 days, open): Untransformed
- Purity % ([2]; 75% RH, 10 days, open): 99.9%
- Crystal form ([2]; 75% RH, 30 days, open): Untransformed
- Purity % ([2]; 75% RH, 30 days, open): 99.9%
- Crystal form ([2]; 92.5% RH, 5 days, open): Untransformed
- Purity % ([2]; 92.5% RH, 5 days, open): 99.9%
- Crystal form ([2]; 92.5% RH, 10 days, open): Untransformed
- Purity % ([2]; 92.5% RH, 10 days, open): 99.9%
- Crystal form ([2]; 92.5% RH, 30 days, open): Untransformed
- Purity % ([2]; 92.5% RH, 30 days, open): 99.9%
- Crystal form ([2]; 4500 Lux, 5 days, open): Untransformed
- Purity % ([2]; 4500 Lux, 5 days, open): 99.9%
- Crystal form ([2]; 4500 Lux, 10 days, open): Untransformed
- Purity % ([2]; 4500 Lux, 10 days, open): 99.9%
- Crystal form ([2]; 4500 Lux, 30 days, open): Untransformed
- Purity % ([2]; 4500 Lux, 30 days, open): 99.9%
- Purity % ([2]; Onset, 0 days): 99.9%
- physical and chemical stability (conclusion) ([2]; 30 days): good physical and chemical stability
- Crystal form ([3]; 25° C./60% RH): Untransformed
- Purity % 1 month ([3]; 25° C./60% RH): 99.9%
- Purity % 2 month ([3]; 25° C./60% RH): 99.8%
- Purity % 3 month ([3]; 25° C./60% RH): 99.8%
- Purity % 6 month ([3]; 25° C./60% RH): 99.9%
- Purity % Onset ([3]; 25° C./60% RH): 99.9%
- physical and chemical stability (conclusion) [3]: good physical and chemical stability
- Crystal form ([3]; 40° C./75% RH): Untransformed
- Purity % 1 month ([3]; 40° C./75% RH): 99.9%
- Purity % 2 month ([3]; 40° C./75% RH): 99.8%
- Purity % 3 month ([3]; 40° C./75% RH): 99.8%
- Purity % 6 month ([3]; 40° C./75% RH): 99.8%
- Purity % Onset ([3]; 40° C./75% RH): 99.9%
SMILES: CC(C)NCC(C(=O)N1C2CCC1CN(c1ncnc3c1C(C)(C)C(=O)N3)C2)c1ccc(Cl)cc1.CS(=O)(=O)O (stereo not drawn) [Crystal form A of methanesulfonate]

- mass change 0% RH-80.0% RH [1]: 0.50%
- mass change 0.0% RH-95.0% RH [1]: 0.66%
- Crystal form after hygroscopicity test [1]: Untransformed
- Crystal form ([2]; 40° C., 5 days, open): Untransformed
- Purity % ([2]; 40° C., 5 days, open): 99.6%
- Crystal form ([2]; 40° C., 10 days, open): Untransformed
- Purity % ([2]; 40° C., 10 days, open): 99.6%
- Crystal form ([2]; 40° C., 30 days, open): Untransformed
- Purity % ([2]; 40° C., 30 days, open): 99.0%
- Crystal form ([2]; 60° C., 5 days, open): Untransformed
- Purity % ([2]; 60° C., 5 days, open): 99.6%
- Crystal form ([2]; 60° C., 10 days, open): Untransformed
- Purity % ([2]; 60° C., 10 days, open): 99.5%
- Crystal form ([2]; 60° C., 30 days, open): Untransformed
- Purity % ([2]; 60° C., 30 days, open): 98.8%
- Crystal form ([2]; 75% RH, 5 days, open): Untransformed
- Purity % ([2]; 75% RH, 5 days, open): 99.7%
- Crystal form ([2]; 75% RH, 10 days, open): Untransformed
- Purity % ([2]; 75% RH, 10 days, open): 99.7%
- Crystal form ([2]; 75% RH, 30 days, open): Untransformed
- Purity % ([2]; 75% RH, 30 days, open): 99.7%
- Crystal form ([2]; 92.5% RH, 5 days, open): Untransformed
- Purity % ([2]; 92.5% RH, 5 days, open): 99.7%
- Crystal form ([2]; 92.5% RH, 10 days, open): Untransformed
- Purity % ([2]; 92.5% RH, 10 days, open): 99.7%
- Crystal form ([2]; 92.5% RH, 30 days, open): Untransformed
- Purity % ([2]; 92.5% RH, 30 days, open): 99.7%
- Crystal form ([2]; 4500 Lux, 5 days, open): Untransformed
- Purity % ([2]; 4500 Lux, 5 days, open): 99.7%
- Crystal form ([2]; 4500 Lux, 10 days, open): Untransformed
- Purity % ([2]; 4500 Lux, 10 days, open): 99.7%
- Crystal form ([2]; 4500 Lux, 30 days, open): Untransformed
- Purity % ([2]; 4500 Lux, 30 days, open): 99.6%
- Purity % ([2]; Onset, 0 days): 99.7%
- Crystal form ([3]; 25° C./60% RH): Untransformed
- Purity % 1 month ([3]; 25° C./60% RH): 99.7%
- Purity % 2 month ([3]; 25° C./60% RH): 99.7%
- Purity % 3 month ([3]; 25° C./60% RH): 99.7%
- Purity % 6 month ([3]; 25° C./60% RH): 99.7%
- Purity % Onset ([3]; 25° C./60% RH): 99.7%
- physical and chemical stability (conclusion) [3]: good physical and chemical stability
- Crystal form ([3]; 40° C./75% RH): Untransformed
- Purity % 1 month ([3]; 40° C./75% RH): 99.7%
- Purity % 2 month ([3]; 40° C./75% RH): 99.6%
- Purity % 3 month ([3]; 40° C./75% RH): 99.6%
- Purity % 6 month ([3]; 40° C./75% RH): 99.5%
- Purity % Onset ([3]; 40° C./75% RH): 99.7%
SMILES: CC(=O)O.CC(C)NCC(C(=O)N1C2CCC1CN(c1ncnc3c1C(C)(C)C(=O)N3)C2)c1ccc(Cl)cc1 (stereo not drawn) [Crystal form α of acetate]
- physical and chemical stability (conclusion) ([2]; 30 days): good physical stability and good chemical stability under high humidity and illumination conditions
